Activity calls are given as the source filed them.
Experiments:
[1] = target: DNA dC->dU-editing enzyme APOBEC-3A (Homo sapiens, UniProt P31941); assay: Dose Response confirmation of small molecule APOBEC3A DNA Deaminase Inhibitors via a fluorescence-based single-stranded DNA deaminase assay. [Related pubchem assays (depositor defined):AID493011, AID493024]; format: functional
[2] = target: DNA dC->dU-editing enzyme APOBEC-3G (Homo sapiens, UniProt Q9HC16); format: functional;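 note: Dose-response counterscreen measuring inhibition of APOBEC3G DNA deaminase activity, run while confirming APOBEC3A inhibitors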
Sequence of DNA dC->dU-editing enzyme APOBEC-3G (Q9HC16 whole entry): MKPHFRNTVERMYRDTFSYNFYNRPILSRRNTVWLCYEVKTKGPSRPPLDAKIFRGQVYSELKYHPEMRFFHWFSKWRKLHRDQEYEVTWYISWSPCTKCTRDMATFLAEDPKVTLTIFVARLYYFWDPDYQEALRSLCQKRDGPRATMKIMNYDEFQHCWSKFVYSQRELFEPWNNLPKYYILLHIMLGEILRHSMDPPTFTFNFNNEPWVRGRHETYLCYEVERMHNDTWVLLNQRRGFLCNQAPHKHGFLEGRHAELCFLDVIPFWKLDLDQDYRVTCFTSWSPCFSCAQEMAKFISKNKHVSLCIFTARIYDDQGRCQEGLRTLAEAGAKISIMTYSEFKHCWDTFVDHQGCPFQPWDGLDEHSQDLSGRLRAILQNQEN

[3] = target: T1, Acyl-homoserine lactone acylase PvdQ (Pseudomonas aeruginosa (strain LESB58), UniProt Q9I194); assay: PvdQ acylase enzyme activity blockers – biochemical, fluorescence, plate reader and imaging, cherry-picks, dose response (AID 493231)
T1 sequence (Q9I194 whole entry): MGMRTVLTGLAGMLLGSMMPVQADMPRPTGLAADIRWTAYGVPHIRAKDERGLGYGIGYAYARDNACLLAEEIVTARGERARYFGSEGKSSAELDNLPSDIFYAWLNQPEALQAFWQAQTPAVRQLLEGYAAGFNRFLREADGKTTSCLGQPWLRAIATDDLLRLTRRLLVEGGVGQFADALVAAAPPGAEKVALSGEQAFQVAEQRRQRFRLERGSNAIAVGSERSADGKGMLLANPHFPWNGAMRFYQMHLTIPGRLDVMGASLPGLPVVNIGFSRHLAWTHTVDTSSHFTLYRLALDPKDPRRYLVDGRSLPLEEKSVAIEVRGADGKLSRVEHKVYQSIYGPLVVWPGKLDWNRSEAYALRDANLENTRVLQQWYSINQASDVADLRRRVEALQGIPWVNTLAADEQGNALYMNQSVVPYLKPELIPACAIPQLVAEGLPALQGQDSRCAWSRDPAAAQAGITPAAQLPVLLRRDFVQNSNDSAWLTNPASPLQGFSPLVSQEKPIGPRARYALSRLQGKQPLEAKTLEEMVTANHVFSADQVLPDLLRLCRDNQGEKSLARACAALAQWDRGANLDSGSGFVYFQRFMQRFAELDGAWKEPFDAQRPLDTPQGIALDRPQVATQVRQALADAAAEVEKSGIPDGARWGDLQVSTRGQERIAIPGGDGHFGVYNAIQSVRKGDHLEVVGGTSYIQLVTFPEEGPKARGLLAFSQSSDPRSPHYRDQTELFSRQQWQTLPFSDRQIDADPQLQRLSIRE

[4] = target: T2, Neuropeptide Y receptor type 1 (Homo sapiens, UniProt P25929); format: functional;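 note: HEK293 cells with a CNG channel challenged with NPY then isoproterenol; potency as antagonist that reverses NPY suppression of cAMP signal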
T2 sequence (P25929 whole entry): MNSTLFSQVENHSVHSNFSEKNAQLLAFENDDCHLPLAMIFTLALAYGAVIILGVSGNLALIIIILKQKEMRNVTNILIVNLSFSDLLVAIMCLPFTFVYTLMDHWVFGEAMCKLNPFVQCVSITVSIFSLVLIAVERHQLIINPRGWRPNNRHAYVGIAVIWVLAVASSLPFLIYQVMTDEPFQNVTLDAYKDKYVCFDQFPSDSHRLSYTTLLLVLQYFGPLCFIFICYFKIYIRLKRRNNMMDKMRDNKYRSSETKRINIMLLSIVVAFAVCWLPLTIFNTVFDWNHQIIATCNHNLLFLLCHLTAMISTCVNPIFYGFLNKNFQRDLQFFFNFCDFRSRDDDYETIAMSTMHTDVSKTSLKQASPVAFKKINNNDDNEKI

[5] = target: T3, Neuropeptide Y receptor type 2 (Homo sapiens, UniProt P49146); format: functional, cell-based;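 note: HEK293 cells expressing the receptor and a CNG channel; stimulus was NPY near EC95 followed by isoproterenol to raise cAMP; antagonist potency measured as restoring cAMP signal that NPY suppresses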
T3 sequence (P49146 whole entry): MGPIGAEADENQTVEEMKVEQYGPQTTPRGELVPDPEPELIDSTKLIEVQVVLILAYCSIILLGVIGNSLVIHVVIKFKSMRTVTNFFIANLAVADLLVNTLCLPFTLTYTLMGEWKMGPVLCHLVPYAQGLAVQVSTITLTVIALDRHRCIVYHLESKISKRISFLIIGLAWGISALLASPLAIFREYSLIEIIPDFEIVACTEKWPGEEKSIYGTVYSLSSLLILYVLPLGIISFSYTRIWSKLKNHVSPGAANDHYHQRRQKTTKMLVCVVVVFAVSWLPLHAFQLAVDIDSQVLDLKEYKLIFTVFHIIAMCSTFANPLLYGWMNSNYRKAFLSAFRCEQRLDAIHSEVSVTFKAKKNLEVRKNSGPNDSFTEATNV

Cytochrome P450 2C19 = Cytochrome P450 2C19 (Homo sapiens, UniProt P33261); assay: Cytochrome panel assay with activity outcomes. Panel member name: p450-cyp2c19 Compounds with AC50 equal or less than 10 uM are considered active; format: functional; settings: read-out: AC50
Sequence of Cytochrome P450 2C19 (P33261 whole entry): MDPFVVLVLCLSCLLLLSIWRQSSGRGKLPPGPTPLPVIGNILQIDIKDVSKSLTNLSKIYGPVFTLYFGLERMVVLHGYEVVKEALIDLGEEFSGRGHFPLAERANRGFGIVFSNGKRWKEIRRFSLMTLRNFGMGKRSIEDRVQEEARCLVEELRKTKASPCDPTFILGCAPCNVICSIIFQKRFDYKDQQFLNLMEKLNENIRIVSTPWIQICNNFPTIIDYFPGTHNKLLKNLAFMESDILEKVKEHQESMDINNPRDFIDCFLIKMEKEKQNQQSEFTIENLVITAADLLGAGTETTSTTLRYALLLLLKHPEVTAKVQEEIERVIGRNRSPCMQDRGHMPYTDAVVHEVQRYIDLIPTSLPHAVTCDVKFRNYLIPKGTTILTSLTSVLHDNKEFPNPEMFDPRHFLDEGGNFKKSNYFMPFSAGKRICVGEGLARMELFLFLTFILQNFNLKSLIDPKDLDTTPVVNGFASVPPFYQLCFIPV

Cytochrome P450 2D6 = Cytochrome P450 2D6 (Homo sapiens, UniProt P10635);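 note: CYP2D6 member of a cytochrome P450 panel assay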
Sequence of Cytochrome P450 2D6 (P10635 whole entry): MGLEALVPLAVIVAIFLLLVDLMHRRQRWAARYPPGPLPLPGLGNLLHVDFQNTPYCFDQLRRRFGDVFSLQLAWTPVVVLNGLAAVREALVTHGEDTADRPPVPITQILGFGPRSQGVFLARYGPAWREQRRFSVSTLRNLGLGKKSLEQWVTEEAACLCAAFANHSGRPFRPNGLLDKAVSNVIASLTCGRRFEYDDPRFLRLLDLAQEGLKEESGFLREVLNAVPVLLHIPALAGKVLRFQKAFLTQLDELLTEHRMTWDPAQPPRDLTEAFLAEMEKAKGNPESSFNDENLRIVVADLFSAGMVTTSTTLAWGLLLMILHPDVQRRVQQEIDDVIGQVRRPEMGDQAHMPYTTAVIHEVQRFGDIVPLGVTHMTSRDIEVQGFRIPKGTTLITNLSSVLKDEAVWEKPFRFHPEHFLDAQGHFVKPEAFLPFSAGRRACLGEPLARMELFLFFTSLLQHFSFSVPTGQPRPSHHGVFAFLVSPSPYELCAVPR

Cytochrome P450 3A4 = Cytochrome P450 3A4 (Homo sapiens, UniProt P08684);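 note: CYP3A4 tested as one member of a cytochrome P450 panel screen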
Sequence of Cytochrome P450 3A4 (P08684 whole entry): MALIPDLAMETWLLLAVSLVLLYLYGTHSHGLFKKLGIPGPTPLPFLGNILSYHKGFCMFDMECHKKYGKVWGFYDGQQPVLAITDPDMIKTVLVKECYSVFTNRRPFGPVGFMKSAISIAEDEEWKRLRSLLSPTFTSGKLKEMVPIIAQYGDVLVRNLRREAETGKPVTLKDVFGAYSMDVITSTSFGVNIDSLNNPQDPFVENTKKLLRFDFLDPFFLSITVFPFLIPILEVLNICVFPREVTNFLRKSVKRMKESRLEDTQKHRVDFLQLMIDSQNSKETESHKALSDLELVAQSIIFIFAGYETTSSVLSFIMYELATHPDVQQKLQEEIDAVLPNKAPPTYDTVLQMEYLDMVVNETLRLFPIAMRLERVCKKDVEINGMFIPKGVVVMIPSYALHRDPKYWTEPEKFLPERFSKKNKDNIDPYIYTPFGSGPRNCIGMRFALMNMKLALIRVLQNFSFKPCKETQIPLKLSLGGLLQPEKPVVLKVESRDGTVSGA

[6] = THP-1 cell cytotoxicity, dose response, cytotoxicity control for non-replicating M. tuberculosis project (AID 489025); format: functional
cells = format: functional
[7] = Luminescence Cell-Based Dose Retest to Confirm Inhibitors of Cancer Stem Cells. [Related pubchem assays (depositor defined):AID2717, AID2721]; format: functional; settings: Homo sapiens
[8] = Luminescence Cell-Based Dose Confirmation HTS to Identify Activators of 5'UTR Stem-Loop Driven Alpha-Synuclein mRNA Translation in H4 Neuroglioblastoma Cells. [Related pubchem assays: 1829 (Project Summary), 1814 (Primary HTS)]; format: functional
[9] = Luminescence Cell-Based Dose Response HTS to Identify Activators of Luciferase Translation or Activity in H4 […] Cells. [Related pubchem assays: 1829 (Project Summary), 1814 (Primary HTS)]; format: functional
H4 = assay: Luminescence Cell-Based Dose Response HTS to Identify Activators of 5'UTR Stem-Loop Driven Prion Protein mRNA Translation in H4 Neuroglioblastoma Cells. [Related pubchem assays: 1829 (Project Summary), 1814 (Primary HTS)]; format: functional; settings: Homo sapiens
Cytochrome P450 1A2 = target: T4, Cytochrome P450 1A2 (Homo sapiens, UniProt P05177);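 note: PubChem cytochrome P450 panel assay, CYP1A2 panel member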
T4 sequence (P05177 whole entry): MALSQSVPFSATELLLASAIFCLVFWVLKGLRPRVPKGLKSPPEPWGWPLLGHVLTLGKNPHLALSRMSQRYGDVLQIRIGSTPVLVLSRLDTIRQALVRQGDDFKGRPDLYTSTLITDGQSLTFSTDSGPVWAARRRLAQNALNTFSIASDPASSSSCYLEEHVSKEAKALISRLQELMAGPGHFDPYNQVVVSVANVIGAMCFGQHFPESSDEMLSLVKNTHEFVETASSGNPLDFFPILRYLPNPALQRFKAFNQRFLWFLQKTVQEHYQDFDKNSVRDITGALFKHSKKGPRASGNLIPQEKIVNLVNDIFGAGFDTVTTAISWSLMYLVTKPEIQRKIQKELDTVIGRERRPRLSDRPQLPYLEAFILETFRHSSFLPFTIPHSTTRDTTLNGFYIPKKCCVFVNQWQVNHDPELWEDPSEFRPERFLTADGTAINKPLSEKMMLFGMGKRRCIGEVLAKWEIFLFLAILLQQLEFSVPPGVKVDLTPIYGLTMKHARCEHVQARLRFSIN

Cytochrome P450 2C9 = Cytochrome P450 2C9 (Homo sapiens, UniProt P11712)
Sequence of Cytochrome P450 2C9 (P11712 whole entry): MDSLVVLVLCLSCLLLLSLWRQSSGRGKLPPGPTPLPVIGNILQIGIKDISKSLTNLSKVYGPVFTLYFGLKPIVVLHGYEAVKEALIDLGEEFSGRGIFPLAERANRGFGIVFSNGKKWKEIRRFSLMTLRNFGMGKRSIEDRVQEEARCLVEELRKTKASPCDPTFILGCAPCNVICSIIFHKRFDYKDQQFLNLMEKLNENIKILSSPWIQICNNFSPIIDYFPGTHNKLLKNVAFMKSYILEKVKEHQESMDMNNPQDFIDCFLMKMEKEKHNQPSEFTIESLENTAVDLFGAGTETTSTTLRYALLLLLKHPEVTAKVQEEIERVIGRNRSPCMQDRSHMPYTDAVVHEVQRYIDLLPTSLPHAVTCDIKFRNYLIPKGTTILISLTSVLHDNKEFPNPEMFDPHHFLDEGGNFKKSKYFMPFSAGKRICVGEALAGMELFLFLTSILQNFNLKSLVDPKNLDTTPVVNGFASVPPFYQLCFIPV

[10] = A cytotoxicity screen of small molecule inhibitors of the PhoP region in Salmonella typhi identified in the primary screen. [Related pubchem assays: 1850, 1864, 1985 ]; format: functional

Sequence of DNA dC->dU-editing enzyme APOBEC-3A (P31941 whole entry): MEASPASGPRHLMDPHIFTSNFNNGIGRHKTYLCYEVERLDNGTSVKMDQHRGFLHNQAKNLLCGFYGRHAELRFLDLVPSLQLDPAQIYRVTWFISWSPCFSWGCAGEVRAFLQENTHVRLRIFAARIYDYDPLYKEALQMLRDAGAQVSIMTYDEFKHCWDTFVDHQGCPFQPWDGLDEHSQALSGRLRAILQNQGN

Compound: Cc1ccc2c(c1)C1CN(C)CCC1N2CC(=O)N(C)c1ccccc1 (stereo not given)
- IC50 [1]: 5.51 µM (active)
- IC50 [2]: 9.94 µM (active)

Compound: CSC1=NC(=O)/C(=C/c2ccc(SC)cc2)S1
- AC50 [3]: 16.2 µM (active)

Compound: O=C(CSCc1c(Cl)cccc1Cl)Nc1ccccc1-c1ccccc1
- IC50 [4]: 5.69 µM (active)
- IC50 [5]: 6.07 µM (active)

Compound: CCOC(=O)N1CCN(C(=O)c2oc3ccc(S(=O)(=O)N4CCCCC4)cc3c2C)CC1
- AC50 (Cytochrome P450 2C19): 28.2 µM (inconclusive)
- AC50 (Cytochrome P450 2D6): 20 µM (inconclusive)
- AC50 (Cytochrome P450 3A4): inconclusive

Compound: COc1ccccc1N=Nc1[nH]c2ccc(C)cc2c1O
- IC50 [1]: 6.59 µM (active)
- IC50 [2]: 6.6 µM (active)

Compound: CCOc1ccc2nc(NC(=O)CS(=O)(=O)c3ccc(C)cc3)sc2c1
- IC50 [4]: > 12 µM (not active)
- IC50 [5]: > 35 µM (not active)

Compound: O=S(=O)(c1ccccc1)N1CCC2(CC1)CN(C(c1ccccc1)c1ccccc1)C2
- AC50 (Cytochrome P450 3A4): inconclusive

Compound: CCN1CCN(c2ccc(S(=O)(=O)N3CCCCC3)cc2NC(=O)/C=C/c2ccc(OC(F)F)cc2)CC1
- IC50 [1]: 4.28 µM (active)
- IC50 [2]: 7.32 µM (active)

Compound: O=C(Nc1ccccc1)c1cc2ccccc2o1
- CC50 [6]: > 40 µM (active)
- IC50 (cells): 6.22 µM (active)

Compound: Cc1ccc(OCCCCN(C)Cc2ccccc2)c(Br)c1
- IC50 [4]: 8.33 µM (active)
- IC50 [5]: 12 µM (not active)
- AC50 [7]: 9.59 µM (active)

Compound: CN1C2CCC1/C(=C\c1ccccc1)C(=O)/C2=C\c1ccccc1
- EC50 [8]: 6.92 µM (active)
- EC50 [9]: > 120 µM (not active)
- EC50 (H4): > 120 µM (not active)
- AC50 [7]: 4.4 µM (active)
- AC50 (Cytochrome P450 2C19): 10 µM (inconclusive)
- AC50 (Cytochrome P450 1A2): 39.8 µM (inconclusive)
- AC50 (Cytochrome P450 3A4): inconclusive
- AC50 (Cytochrome P450 2C9): inconclusive

Compound: Clc1ccc(C2=Nn3c(nnc3-c3[nH]nc4c3CCC4)SC2)cc1Cl
- IC50 [4]: 9.8 µM (active)
- IC50 [5]: 8.69 µM (active)

Compound: O=C(NC1CCCC1)c1cc(Cl)ccc1[N+](=O)[O-]
- AC50 [3]: 0.948 µM (active)

Compound: COc1c(Br)cc2c(C)c(C(=O)N3CCOCC3)oc2c1Br
- EC50 [10]: > 50 µM (active)

Compound: N#CC1C(C#N)C2CCC1C1C2N1c1ccccc1 (stereo not given)
- AC50 [3]: 7.8 µM (active)

Compound: OCCNC1=NCCN1
- IC50 [1]: 2.2 µM (active)
- IC50 [2]: 1.95 µM (active)

Compound: Cc1ccc(/C=N/NC(=O)CSc2nc3ccccc3n2C)s1
- EC50 [10]: > 50 µM (active)
- AC50 (Cytochrome P450 2C9): inconclusive

Compound: N=C(N)SCCc1ccc(CCSC(=N)N)cc1
- AC50 (Cytochrome P450 2D6): 31.6 µM (inconclusive)
- AC50 (Cytochrome P450 3A4): inconclusive

Compound: COc1ccc2nc(NC(=O)Nc3ccccc3)sc2c1 [FRENTIZOLE]
- EC50 [10]: > 50 µM (active)
